What was measured:
[1] = molecular target: T1, GDP-loaded KRAS (1-169) G12C, C51S, C80L, C118S (Homo sapiens, UniProt P01116, C118S/C51S/C80L/G12C); experiment: Mass Spectrometry Reactivity Assay (MSRA): covalent adduct of compound and KRAS G12C, Percent Modification; assay type: binding; settings: for MSRA (% modification) 10 μM 0.50 hr: 10 μM compound; for MSRA (% modification) 5.0 μM 0.25 hr / MSRA (% modification) 5.0 μM 0.017 hr: 5.0 μM compound
T1 construct: GDP-loaded KRAS (1-169) G12C, C51S, C80L, C118S
Description: Mass Spectrometry Reactivity Assay (MSRA)
Compounds presented in the present invention covalently bind to KRAS G12C using MSRA to detect a covalent adduct of the exemplary compound and KRAS G12C.
GDP-loaded KRAS (1-169) G12C, C51S, C80L, C118S were diluted in the protein assay buffer 25 mM Hepes pH7.5, 200 mM NaCl, 5% glycerol to concentration of 5 μM and 20 μl of protein was transferred into 96-well plate. Initial compound stocks were generated at concentrations 100-fold higher that their desired assay concentrations. See K-Ras(G12C) inhibitors allosterically control GTP affinity and effector interactions; Ostrem J M, Peters U, Sos M L, Wells J A, Shokat K M; Nature. 2013, Nov. 28; 503(7477):548-51.
Exemplary compounds dissolved in DMSO were diluted 100-fold into solution containing 20 μl of 5 μM KRAS protein in the 96-well plate to initiate the reaction. Mosquito (TPP Lab tech) liquid handling robot was used to add compounds to protein solution. Typical final concentration of the compounds was 5 μM or 10 μM. The plates were placed on a shaker for 1 min at RT, sealed and incubated at room temperature for specified time period. 5 μl of reaction mix was added to 10 μl of 0.2% formic acid stop solution and mixed well. Typical end points were 1, 15, 30, and 60 min.
Data were collected using Waters Acquity H-class UPLC system/Xevo G2-XS TOF mass spectrometer. The protein was injected in their liquid phase onto a Bruker Microtrap protein column TR1/15109/03. The following buffers were used to set LC gradient: Buffer A: 0.2% formic acid H2O; B: 0.2% formic acid CAN. The protein was eluted from the column using the following LC Gradient: 0-0.4 min, 10% B to 30% B; 0.4 min-2.4 min, to 90% B, 2.5 min, 10% B, 3 min, 10% B. Initial data analysis was performed using MaxEnt software right after data acquisition.
The standard auto processing function was used to define percentage of unmodified and modified KRAS protein using MexEnt software right after data acquisition. The highest peak was defined as 100% while smaller peak as assigned the number defined by autoprocessing function. The percent of modification corresponding to modified with exemplary compound and unmodified KRAS GDP-loaded KRAS (1-169) G12C, C51S, C80L, C118S were exported to Xcel data analysis software.
The percent of modified protein at the defined concentration of exemplary compound was calculated using the following formula: % mod=Num of modified peak/Sum of modified+unmodified. The resultant value defined as Percent Modification (PM) and an increase in PM reflects that the specific compound is better than other compounds at specified compound concentration at a given time point.

KRAS G12C = KRAS G12C (Homo sapiens, UniProt P01116, G12C); experiment: Cell Activity Assay: accumulation of GDP-bound KRAS G12C in MIAPaCa-2 cells (Raf-1 RBD capture, MSD readout); assay type: cell-based; design: endogenous in cells; host or cells: MIAPaCa-2; settings: 6 hours, assay limit is 30.00
Description: Compounds presented in the present invention lead to the accumulation of the GDP bound Ras upon treatment of human cancer cell line.
The accumulation of the GDP-bound KRAS G12C in cellular environment was measured based on the principle that KRAS G12C only binds to its downstream kinase; Raf-1 (MAP Kinase Kinase Kinase), when in its active-GTP bound state. In this state, Ras binded to a domain of Raf-1 kinase referred to as the Ras Binding Domain (RBD).
MIAPaCa-2 cells were grown in RPMI 1640 medium (Gibco 11875) supplemented with 10% fetal bovine serum and 1% penicillin/streptomycin. Cells were seeded in 96-well tissue culture plates at a density of 30,000 cells/well and allowed to attach for 16-24 hours. Test compounds were prepared as a 10 mM stock in DMSO and serially diluted in 100% DMSO using a 3-fold dilution scheme. An intermediate 5× concentrated plate in complete growth medium was made and 25 μl/well was added to the 100 μl of cells for a final concentration of 0.3% DMSO. Each concentration of exemplary compound was tested in duplicate. The negative control wells were cells with control inhibitor at 10 μM, and the positive control wells were cells without drugs, DMSO only. Plates were incubated for 6 hours at 37° C., 5% CO2. Following treatment, cells were washed 3× with ice-cold PBS and 115 μl/well ice-cold 1× Assay/Lysis. Buffer with protease inhibitors was added (25 mM HEPES, pH 7.5, 150 mM NaCl, 1% NP-40, 10 mM MgCl2, 1 mM EDTA, 2% Glycerol). Following lysis samples were frozen at −80° C.
Raf-1 RBD (LJIC-1988A1) was diluted to 100 ng/well in PBS and 5 μl/well was spot coated onto MSD high bind SECTOR plates (L15XB). Plates were incubated at room temperature for 1 hour on an orbital shaker. Plates were washed with PBS/0.05% Tween-20 and 50 μl/well of thawed lysate samples were added, followed by 50 μl of 1% MSD Blocker A in PBS/0.05 Tween-20 (R93BA). Plates were incubated for 1 hour on an orbital shaker and washed with PBS/0.05% Tween-20. 25 μl/well of Anti-pan-Ras Antibody (Cell Biolabs 244003) diluted 1:3000 was added in 1% MSD Blocker A solution and plates were incubated for 1 hour on an orbital shaker and washed with PBS/0.05% Tween-20. SULFO-TAG goat anti-mouse secondary antibody (MSD R32AC) was diluted 1:500 in MSD Blocker A solution and added at 25 μL/well. Plates were incubated for 1 hour on an orbital shaker and washed with PBS/0.05% Tween-20. 150 μl/well of Read Buffer T (MSD R92TC) diluted 1:3 in H2O was added and plates were read on a Meso Scale Discovery Sector Imager S600.
KRAS signal was normalized to maximum inhibition and DMSO control values, and IC50 values were generated using a 4 parameter fit of the dose response curve. The decrease in IC50 reflects that the exemplary compound lead to a higher level of accumulation of GDP-bound KRAS G12C than another exemplary compounds at specific timepoint of treatment of cancer cell line.

MSRA (% modification) 10 μM 0.50 hr [1] [%] | IC50 (KRAS G12C) [µM] | MSRA (% modification) 5.0 μM 0.25 hr [1] [%] | MSRA (% modification) 5.0 μM 0.017 hr [1] [%] | Structure (SMILES)
11 | 11.8 | – | – | C=CC(=O)N1CCN(c2ncnc3c(Oc4c(C)ccc5[nH]ncc45)nccc23)CC1 [Example 01A, 1-(4-{8-[(5-methyl-1H-indazol-4-yl)oxy]pyrido[3,4-d]pyrimidin-4-yl}piperazin-1-yl)prop-2-en-1-one]
12 | 16.9 | – | – | C=CC(=O)N1CCN(c2nc(OC)nc3c(Oc4c(C)ccc5[nH]ncc45)nccc23)CC1 [Example 01B, 1-(4-{2-methoxy-8-[(5-methyl-1H-indazol-4-yl)oxy]pyrido[3,4-d]pyrimidin-4-yl}piperazin-1-yl)prop-2-en-1-one]
18 | 5.92 | – | – | C=CC(=O)N1CCN(c2ncnc3c(Oc4c(C)ccc5[nH]ncc45)cccc23)CC1 [Example 01C, 1-(4-{8-[(5-methyl-1H-indazol-4-yl)oxy]quinazolin-4-yl}piperazin-1-yl)prop-2-en-1-one]
– | 0.339 | 55 | – | C=CC(=O)N1CCN(c2nc(O[C@H]3CCOC3)nc3c(Oc4c(Cl)c(F)cc5[nH]ncc45)nccc23)CC1 [Example 01J, 1-(4-{8-[(5-chloro-6-fluoro-1H-indazol-4-yl)oxy]-2-[(3S)-tetrahydrofuran-3-yloxy]pyrido[3,4-d]pyrimidin-4-yl}piperazin-1-yl)prop-2-en-1-one]
15 | 5.25 | – | – | C=CC(=O)N1CCN(c2ncnc3c(Oc4c(C)ccc5[nH]ncc45)nc(C)cc23)CC1 [Example 02A, 1-(4-{6-methyl-8-[(5-methyl-1H-indazol-4-yl)oxy]pyrido[3,4-d]pyrimidin-4-yl}piperazin-1-yl)prop-2-en-1-one]
60 | 1.01 | 12 | – | C=CC(=O)N1CCN(c2ncnc3c(Oc4c(Cl)c(F)cc5[nH]ncc45)nccc23)CC1 [Example 02C, 1-(4-{8-[(5-chloro-6-fluoro-1H-indazol-4-yl)oxy]pyrido[3,4-d]pyrimidin-4-yl}piperazin-1-yl)prop-2-en-1-one]
12 | 4.66 | – | – | C=CC(=O)N1CCN(c2ncnc3c(Cc4c(C)ccc5[nH]ncc45)nccc23)CC1 [Example 02D, 1-(4-{8-[(5-methyl-1H-indazol-4-yl)methyl]pyrido[3,4-d]pyrimidin-4-yl}piperazin-1-yl)prop-2-en-1-one]
32 | 6.46 | – | – | C=CC(=O)N1CCN(c2nc(N3CC(N(C)C)C3)nc3c(Oc4c(C)ccc5[nH]ncc45)cccc23)CC1 [Example 02E, 1-(4-{2-[3-(dimethylamino)azetidin-1-yl]-8-[(5-methyl-1H-indazol-4-yl)oxy]quinazolin-4-yl}piperazin-1-yl)prop-2-en-1-one]
14 | > 30 | – | – | C=CC(=O)N1CCN(c2nc(NCc3nncn3C)nc3c(Oc4c(C)ccc5[nH]ncc45)cccc23)CC1 [Example 02F, 1-[4-(8-[(5-methyl-1H-indazol-4-yl)oxy]-2-{[(4-methyl-4H-1,2,4-triazol-3-yl)methyl]amino}quinazolin-4-yl)piperazin-1-yl]prop-2-en-1-one]

Further lines, the molecule ahead of its results:

Structure (SMILES) | MSRA (% modification) 10 μM 0.50 hr [1] [%] | IC50 (KRAS G12C) [µM] | MSRA (% modification) 5.0 μM 0.25 hr [1] [%] | MSRA (% modification) 5.0 μM 0.017 hr [1] [%]
C=CC(=O)N1CCN(c2ncnc3c(Oc4cc(O)cc5ccccc45)nc(C(F)(F)F)cc23)CC1 [Example 01, 1-(4-{8-[(3-hydroxynaphthalen-1-yl)oxy]-6-(trifluoromethyl)pyrido[3,4-d]pyrimidin-4-yl}piperazin-1-yl)prop-2-en-1-one] | 27 | > 30 | – | –
C=CC(=O)N1CCN(c2ncnc3c(Cc4c(C)ccc5[nH]ncc45)cccc23)CC1 [Example 01D, 1-(4-{8-[(5-methyl-1H-indazol-4-yl)methyl]quinazolin-4-yl}piperazin-1-yl)prop-2-en-1-one] | 37 | 6.69 | – | –
C=CC(=O)N1CCN(c2nc(N3CC(N(C)C)C3)nc3c(Oc4c(Cl)c(C)cc5[nH]ncc45)nc(C)cc23)CC1 [Example 01E, 1-(4-{8-[(5-Chloro-6-methyl-1H-indazol-4-yl)oxy]-2-[3-(dimethylamino)azetidin-1-yl]-6-methylpyrido[3,4-d]pyrimidin-4-yl}piperazin-1-yl)prop-2-en-1-one] | 29 | 2.41 | – | –
C=CC(=O)N1CCN(c2nc(NCc3nc(C)c[nH]3)nc3c(Oc4c(C)ccc5[nH]ncc45)cccc23)CC1 [Example 01F, 1-[4-(2-{[(4-methyl-1H-imidazol-2-yl)methyl]amino}-8-[(5-methyl-1H-indazol-4-yl)oxy]quinazolin-4-yl)piperazin-1-yl]prop-2-en-1-one] | 35 | 9.34 | – | –
C=CC(=O)N1CCN(c2nc(O[C@@H]3CN(C)C[C@H]3OC)nc3c(Oc4c(Cl)c(F)cc5[nH]ncc45)nc(C)cc23)CC1 [Example 01K, 1-[4-(8-[(5-chloro-6-fluoro-1H-indazol-4-yl)oxy]-2-{[(3R,4R)-4-methoxy-1-methylpyrrolidin-3-yl]oxy}-6-methylpyrido[3,4-d]pyrimidin-4-yl)piperazin-1-yl]prop-2-en-1-one] | – | 0.065 | – | 65
C=CC(=O)N1CCN(c2nc(O[C@@H]3CN(C)C[C@H]3OC)nc3c(Oc4c(Cl)c(F)cc5[nH]ncc45)cccc23)CC1 [Example 01L, 1-[4-(8-[(5-chloro-6-fluoro-1H-indazol-4-yl)oxy]-2-{[(3R,4R)-4-methoxy-1-methylpyrrolidin-3-yl]oxy}quinazolin-4-yl)piperazin-1-yl]prop-2-en-1-one] | – | 0.038 | – | 51
C=CC(=O)N1CCN(c2ncnc3c(Oc4cc(O)cc5ccccc45)nc(C)cc23)CC1 [Example 02, 1-(4-{8-[(3-Hydroxynaphthalen-1-yl)oxy]-6-methylpyrido[3,4-d]pyrimidin-4-yl}piperazin-1-yl)prop-2-en-1-one] | 19 | > 30 | – | –

Reference: patent US10662204B2 (PFIZER INC., priority 2018, dated 2020)
